Drawing on PubChem BioAssay (NCI), this text covers TGI and GI50 for 10 compounds.

What all share (experiment): growth of human tumour cells (NCI), 48 h
Experiment [1] concerns COLO 205 colon.
For experiment [2], the system named is HCT-116 colon.
For experiment [3], the system named is SK-MEL-28 melanoma.
In experiment [4] the test system is U251 CNS.
In experiment [5] the test system is HT29 colon.
The test system of experiment [6] is HCT-15 colon.
The subject of experiment [7] is SF-295 CNS.
The test system of experiment [8] is HCC-2998 colon.
Experiment [9] concerns M14 melanoma.
Experiment [10] has as its system SNB-75 CNS.
In experiment [11] the test system is MCF7 breast.
In experiment [12] the test system is KM12 colon.
The test system of experiment [13] is SK-MEL-2 melanoma.
Experiment [14] concerns SN12C renal.
For experiment [15], the system named is DMS 273 small cell lung.
For experiment [16], the system named is DMS 114 small cell lung.
Experiment [17] deals with DLD-1 colon.
Experiment [18] concerns RXF 393 renal.

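Growth conditions: 96-well plates. Treatment: test compound, 48 hours, 5 concentrations. Analysis: linear interpolation between bracketing concentrations; unreached endpoints set to highest concentration. GI50 = concentration required for 50% inhibition of growth. TGI: concentration producing complete growth inhibition.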

Turning to `O=C(O)Cc1ccc(N2N=C(c3ccccc3)CC2=O)cc1`, the TGI in experiment [1], in [2], in [3], in experiment [4], in experiment [5] and in experiment [6] was more than 100 µM each time. For the same compound, the TGI in experiment [7], in [8], in experiment [9], in experiment [10], in experiment [11] and in experiment [12] was more than 100 µM in each case. The TGI in [13] and in experiment [14] was more than 100 µM each time.
For `[Cl-].[Rh+3].c1ccc(-c2ccnc3c2ccc2c(-c4ccccc4)ccnc23)cc1.c1ccc(-c2ccnc3c2ccc2c(-c4ccccc4)ccnc23)cc1.c1ccc(-c2ccnc3c2ccc2c(-c4ccccc4)ccnc23)cc1`, the TGI in experiment [1] was 43.3 µM; in experiment [2] it was more than 100 µM; in experiment [15], 83.1 µM; in experiment [16] it was 75 µM; in experiment [3] it was more than 100 µM; in experiment [17] it was more than 64.4 µM. In addition, the TGI in experiment [18] is more than 100 µM; in [4], more than 100 µM; in experiment [5], 73.7 µM; in experiment [6] it was more than 100 µM; in [7] it was more than 100 µM; in experiment [8], 50 µM. In addition, the TGI in experiment [10] is more than 100 µM; in experiment [11] it was more than 100 µM; in experiment [12] it was 19.7 µM; in [13], more than 100 µM; in experiment [14], more than 100 µM. For the same compound, the GI50 is 31.3 µM in [7] and 71.3 µM in [11].
As to `CN(C)CCNCc1c2ccccc2c(CNCCN(C)C)c2ccccc12`, the TGI in experiment [1] is 22.3 µM; in experiment [2], more than 90.1 µM; in experiment [15] it was more than 100 µM; in experiment [16] it was more than 70.1 µM; in [3], more than 100 µM; in experiment [17], more than 100 µM. Further, the TGI is 62.7 µM in experiment [18]; 56.9 µM in experiment [4]; 40.6 µM in experiment [5]; more than 100 µM in experiment [6]; more than 100 µM in [7]; 23.8 µM in experiment [8]. Further, the TGI in experiment [10] is more than 100 µM; in experiment [11], 79.8 µM; in experiment [12], more than 100 µM; in experiment [13], 57.5 µM; in experiment [14] it was more than 100 µM.
Consider `C/C=C(/C)C(=O)O[C@@H]1c2c(C)coc2C[C@H]2CC[C@H](O)[C@H](C)[C@]21C`, for which the TGI in experiment [1] was more than 100 µM; in [2] it was more than 100 µM; in experiment [3] it was more than 100 µM; in experiment [18], 78.2 µM; in [4], more than 100 µM; in experiment [5], more than 100 µM. Further, the TGI in experiment [6] is more than 100 µM; in [7] it was more than 100 µM; in experiment [8], more than 100 µM; in experiment [9] it was more than 100 µM; in [11], 87.8 µM; in [12] it was more than 100 µM. The compound further displayed a TGI in experiment [14] of more than 100 µM.
`COc1ccc(/C(Cl)=C(\C=O)c2ccc(F)cc2)cc1`: the TGI in [1] is 31.9 µM; in experiment [2], 20 µM; in [15], 56.4 µM; in [16], 45.1 µM; in experiment [3] it was more than 100 µM; in experiment [17], 50.3 µM. Moreover, the TGI in [4] was 23.5 µM; in experiment [5], 27.8 µM; in experiment [6], 31.2 µM; in experiment [7], 31.6 µM; in experiment [9], more than 100 µM; in [10] it was 8.33 µM. For the same compound, the TGI in [13] was 28.6 µM; in [14], 64.7 µM.
As for `C=CC1OC(CCCOC(=O)C(C)(C)C)O[C@@H]1CC` (stereo partly drawn), the TGI in experiment [1], in [3], in experiment [4], in experiment [5], in [6] and in [7] was more than 100 µM each time. Further, the TGI in experiment [9], in experiment [10], in [11], in [12], in experiment [13] and in experiment [14] was more than 100 µM throughout.
In the case of `C=C(C)C1Cc2c(cc(O)c3c(=O)c4ccccc4n(C)c23)O1` (stereo not drawn), the TGI in experiment [1], in experiment [2], in experiment [15], in [16], in experiment [3] and in [17] was more than 100 µM each time. Further, the TGI in experiment [18] is 33.9 µM; in experiment [4], more than 100 µM; in experiment [5] it was more than 100 µM; in [6], more than 100 µM; in [7], 79.6 µM; in experiment [8], more than 100 µM. Besides, the TGI in [9] is 90.4 µM; in [10], 37.2 µM; in experiment [12], more than 100 µM; in experiment [13], more than 100 µM; in experiment [14] it was more than 100 µM.
`O=[N+]([O-])c1ccc(/C=C/c2ccc(N=Nc3ccc(/C=C/c4ccc([N+](=O)[O-])cc4S(=O)(=O)O)c(S(=O)(=O)O)c3)cc2S(=O)(=O)O)c(S(=O)(=O)O)c1`: the TGI in experiment [1], in [2], in experiment [15], in experiment [16], in experiment [3] and in [17] was more than 100 µM throughout. For the same compound, the TGI in [18], in experiment [4], in experiment [5], in experiment [6], in experiment [7] and in experiment [8] was more than 100 µM in each case. For the same compound, the TGI in experiment [10], in experiment [11], in [12], in experiment [13] and in experiment [14] was more than 100 µM throughout.
With `CC(C)(C)OC(=O)C1=C(C(=O)OC(C)(C)C)SC2(S1)C(C(=O)OC(C)(C)C)=C(C(=O)OC(C)(C)C)Sc1c2ssc1=O`, the TGI in [1], in experiment [2], in experiment [3], in experiment [18], in [4] and in experiment [5] was more than 100 µM throughout. The TGI in experiment [6], in [7], in [8], in experiment [9], in experiment [11] and in experiment [12] was more than 100 µM throughout. In addition, the TGI in experiment [13] and in experiment [14] was more than 100 µM throughout.
As to `COC(=O)[C@@H]1c2cc3c(c(O)c2[C@@H](OC)C[C@@]1(C)O)C(=O)c1c(O)cc2c(c1C3=O)OC1O[C@@]2(C)[C@H](O)[C@@H](N(C)C)[C@@H]1O`, the TGI in experiment [1] came out at 1.98 µM; in experiment [2], 1.58 µM; in experiment [15] it was 0.779 µM; in experiment [16], 0.633 µM; in experiment [17], 8.83 µM; in experiment [18], 1.37 µM. Further, the TGI was determined as 1.92 µM in [4]; 2 µM in experiment [5]; 2.23 µM in experiment [6]; 0.97 µM in [7]; 1.37 µM in [8]; 0.977 µM in experiment [10]. Also, the TGI was 6.48 µM in experiment [11], 2.34 µM in experiment [12], 0.727 µM in experiment [13] and 2.1 µM in [14].
